The text below walks through data of patent US6576268B2, “Biologically active fraction of vegetable melanin, process for its production and its use” (priority 1998, dated 2003).

The experiment is described as follows: SOD-like activity and IC50, chemiluminometric method (PHOTOCHEM, set FAT Berlin). The class given is biochemical. To be noted: fytomelanin with 10^19 spin/g. As for the experimental part:
To determine the SOD-like activity a chemiluminometric method using the chemiluminometer PHOTOCHEM was used, where the set FAT, Berlin for the SOD activity was used for the determination. The measurements were performed with the measuring time of 3 minutes, and the area integral of the chemiluminiscent curve was recorded. The value was recalculated to the unit SOD activity (by weight), and it represents 0.2 of the SOD activity.

As for “SOD: superoxide dismutase, molecular weight 32000, reference enzyme”, the “-log IC50” value worked out at 8.064. Also, the “% SOD activity” value (relative to SOD = 100) is reported as 100.00%.
